The target in one data set is hERG channel (Homo sapiens (Human), UniProt Q12809). In words: hERG ligand binding assay. The settings on record: membranes of hERG channel-expressing HEK293 cell line. How it is done: Additionally, a ligand binding assay was performed to measure the affinity of AST-DT-218 that binds to the hERG channel. First, a hERG channel-expressing cell line (HEK293) was cultured, and then the cells were centrifuged to extract the cell membrane, and membrane proteins were prepared using a cell lysis reagent. A labeled hERG ligand was prepared and AST-DT-218 was dissolved in a solvent (DMSO) and diluted to a concentration (1 μM). After dispensing the cell membrane proteins into a 96-well plate or appropriate experimental equipment, competitive binding experiments were performed by adding AST-DT-218 at various concentrations to each well and incubated for 1 to 2 hours. After completion of the binding, the unbound ligands were washed using a recovery solution to separate the same, the extent of ligand binding was measured using a radiation detection device or fluorescence reader, and the signal intensities were analyzed to calculate the ligand binding inhibition ratio. The degree of binding inhibition according to the concentration of AST-DT-218 was plotted to derive the IC50 value.
hERG channel, sequence (Q12809 whole entry): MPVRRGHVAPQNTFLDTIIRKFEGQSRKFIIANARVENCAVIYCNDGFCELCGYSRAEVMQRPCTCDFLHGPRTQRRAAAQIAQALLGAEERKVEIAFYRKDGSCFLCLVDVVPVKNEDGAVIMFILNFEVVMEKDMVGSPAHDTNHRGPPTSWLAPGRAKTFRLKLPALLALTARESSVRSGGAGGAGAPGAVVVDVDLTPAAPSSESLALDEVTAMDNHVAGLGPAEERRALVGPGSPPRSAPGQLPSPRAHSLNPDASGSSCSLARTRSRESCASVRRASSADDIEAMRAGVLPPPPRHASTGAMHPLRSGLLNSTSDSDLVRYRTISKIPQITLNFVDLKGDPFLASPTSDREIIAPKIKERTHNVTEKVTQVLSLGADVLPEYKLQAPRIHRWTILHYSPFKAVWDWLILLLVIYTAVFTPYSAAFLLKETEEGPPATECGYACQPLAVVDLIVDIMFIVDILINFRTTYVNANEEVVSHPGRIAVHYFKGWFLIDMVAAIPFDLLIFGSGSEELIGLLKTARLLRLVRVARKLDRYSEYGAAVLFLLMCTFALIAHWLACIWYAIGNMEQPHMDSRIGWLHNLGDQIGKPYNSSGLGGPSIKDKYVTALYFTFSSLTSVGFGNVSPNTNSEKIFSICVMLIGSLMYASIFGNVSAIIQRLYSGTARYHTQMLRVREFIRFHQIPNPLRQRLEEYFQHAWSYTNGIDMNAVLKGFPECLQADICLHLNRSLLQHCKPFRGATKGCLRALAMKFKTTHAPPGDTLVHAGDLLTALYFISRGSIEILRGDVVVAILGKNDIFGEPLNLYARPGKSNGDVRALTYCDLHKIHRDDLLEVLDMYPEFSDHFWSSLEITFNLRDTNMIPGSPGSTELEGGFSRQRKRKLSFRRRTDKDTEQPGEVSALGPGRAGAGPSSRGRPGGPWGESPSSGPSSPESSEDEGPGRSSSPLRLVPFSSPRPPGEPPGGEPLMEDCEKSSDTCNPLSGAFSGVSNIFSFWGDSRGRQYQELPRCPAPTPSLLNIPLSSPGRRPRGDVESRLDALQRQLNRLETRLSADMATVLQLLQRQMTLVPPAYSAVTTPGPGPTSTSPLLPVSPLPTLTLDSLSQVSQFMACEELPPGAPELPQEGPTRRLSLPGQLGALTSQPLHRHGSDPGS
(In general: hERG is a cardiac potassium channel; its block is linked to QT prolongation.)

Data set [1] in a line: Maximum tolerated dose (MTD) test. In kind it is in vivo. The settings on record: mice, daily injection day 1 to day 5, highest dose 20 mg/kg. How it is done:
The in vivo maximum tolerated dose (MTD) of AST-DT-218 was evaluated to determine the highest dose at which AST-DT-218 could be safely administered to experimental animals. First, the compound AST-DT-218 and the preparation solvent to be used in the experiment were prepared. The solvent was a mixture of 5% Tween 80, 40% PEG400, 10% DMSO, and 45% DPBS, and AST-DT-218 was prepared according to each dose as shown in Table 6 below. Mice (n=5) to be used in the experiment were prepared and divided into five groups to perform the experiment. The control group was injected with only 0 mg/kg of the solvent, and the remaining groups were injected with the AST-DT-218 solution at 2.5 mg/kg, 5 mg/kg, 10 mg/kg, and 20 mg/kg, respectively, and the injection amount was set to 0.1 mL for a 20 g mouse.
From day 1 to day 5, the injections were administered at the same time daily, and the changes in weight and abnormal behaviors of the mice were observed and data were collected during the experiment.

The next data set has as its system SNU449. In words: HCC cell survival by cell nuclear staining, 24 hours, SNU449. In kind it is cell-based. The conditions noted are these: Homo sapiens, SNU-449. The procedure:
An indication expansion experiment was performed to evaluate the potential of AST-DT-218 for treating hepatocellular carcinoma (HCC). First, HCC cell lines (Huh7, Hep3B, SNU449, and SNU475) were prepared, and AST-DT-218 and Sorafenib were at the highest concentration of 50 μM, serially diluted by half starting therefrom, thereby preparing 10 concentrations (50 μM, 25 μM, 12.5 μM, etc.). HCC cell lines (Huh7, Hep3B, SNU449, SNU475) were seeded into 96-well plates, in which each well was treated with AST-DT-218 and Sorafenib solutions, and the cells were cultured in an incubator for 24 hours. Then, the cell survival at each concentration was evaluated by measuring the cell count using cell nuclear staining, and a concentration-response curve of cell survival was created based on the data, and the IC50 value was derived.

Another data set deals with Huh7. In words: Dose response curve, cell survival, 48 hours, Huh7. In kind it is cell-based. The settings on record: Homo sapiens, Huh-7, Hepatocellular Carcinoma, read-out: IC50 of AST-DT-218, Huh7. How it is done: (§1) A DRC was created to determine whether AST-DT-218 is effective in killing various cancer cells. First, hepatoma cell lines (Huh7 and Hep3B), non-small cell lung cancer cell lines (NCI-H460 and NCI-H1299), pancreatic cancer cell lines (PANC-1 and Mia-Paca-2), rectal cancer cell lines (HT29 and HCT116), a gastric adenocarcinoma cell line (AGS), a malignant melanoma cell line (A375), and an adenocarcinoma cell line (MDA-MB-231) were prepared. Each cell line was cultured in a flask, and the cells which reached the logarithmic growth phase were prepared, washed with PBS, harvested with trypsin, centrifuged to adjust the cell density, and then resuspended in an appropriate culture medium, and plated into 96-well plates. After culturing until the cells attached to the plates and stabilized, AST-DT-218 and controls (lenalidomide and pomalidomide) were prepared and diluted to various concentrations (10-point by diluting by half from the highest concentration of 50 μM). […] After completion of the culture, cell survival was assessed using a cell counting method through cell nuclear staining. Data were collected by measuring cell survival at each concentration, and then DRC was created (see FIGS. 5 to 12) and IC50 values were calculated (see Table 8).

Another data set has as its system PANC-1. In words: Dose response curve, cell survival, 48 hours, PANC-1. It counts as cell-based. The settings on record: Homo sapiens, Pancreatic Carcinoma, read-out: IC50 of AST-DT-218, PANC-1. The procedure:
as §1

A further data set relates to HCT116. In words: Dose response curve, cell survival, 48 hours, HCT116. It counts as cell-based. The conditions noted are these: Homo sapiens, HCT-116, Colorectal Carcinoma, read-out: IC50 of AST-DT-218, HCT116. The procedure:
as §1

For another data set, the system named is AGS. In words: Dose response curve, cell survival, 48 hours, AGS. The settings on record: Homo sapiens, Gastric Adenocarcinoma, read-out: IC50 of AST-DT-218, AGS. It counts as cell-based. How it is done: as §1
A further data set has as its system A375. In words: Dose response curve, cell survival, 48 hours, A375. In kind it is cell-based. The settings on record: Homo sapiens, A-375, Malignant Melanoma, read-out: IC50 of AST-DT-218, A375. How it is done: as §1
Another data set concerns MDA-MB-231. In words: Dose response curve, cell survival, 48 hours, MDA-MB-231. In kind it is cell-based. The settings on record: Homo sapiens, Adenocarcinoma, read-out: IC50 of AST-DT-218, MDA-MB-231. The procedure: as §1
The target in a further data set is CRBN proteins (Homo sapiens (Human), UniProt Q96SW2). In words: CRBN affinity test. It counts as binding. The conditions noted are these: purified CRBN proteins expressed in E. coli. How it is done: First, CRBN proteins were expressed in E. coli and purified, and then the purified CRBN proteins were dissolved in a buffer solution (PBS). […] After the mixture was sufficiently mixed and reacted, the binding strength at each concentration was measured to collect data, and a binding curve was created therefrom (see FIG. 13), and the KD (equilibrium dissociation constant) values were derived therefrom (see Table 9 and FIG. 14).
CRBN proteins, sequence (Q96SW2 whole entry): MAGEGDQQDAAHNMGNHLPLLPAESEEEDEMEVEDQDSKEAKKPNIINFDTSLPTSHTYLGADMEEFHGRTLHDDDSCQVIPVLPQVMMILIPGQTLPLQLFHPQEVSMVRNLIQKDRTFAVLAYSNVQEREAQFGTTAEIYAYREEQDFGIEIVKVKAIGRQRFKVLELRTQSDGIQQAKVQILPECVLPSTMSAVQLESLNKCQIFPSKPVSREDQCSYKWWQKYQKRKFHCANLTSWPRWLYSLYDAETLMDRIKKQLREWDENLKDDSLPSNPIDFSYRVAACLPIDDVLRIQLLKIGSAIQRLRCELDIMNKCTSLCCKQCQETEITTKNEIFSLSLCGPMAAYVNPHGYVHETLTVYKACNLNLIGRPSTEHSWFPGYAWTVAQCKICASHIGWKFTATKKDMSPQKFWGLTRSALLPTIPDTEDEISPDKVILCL

Here are results for 1 compound from patent US20250129041A1, “MOLECULAR GLUE AND USES THEREOF” (ASTROGEN, INC., priority 2023, published 2025).

Usually IC50 stands for the concentration that gives 50% inhibition. The term Kd denotes the equilibrium constant for the complex coming apart. Take `COc1ccc([C@@H](C)Nc2cccc3c2C(=O)N(C2CCC(=O)NC2=O)C3=O)cc1` (stereo partly drawn) [AST-DT-218, 2-(2,6-dioxopiperidin-3-yl)-4-(((R)-1-(4-methoxyphenyl)ethyl)amino)isoindoline-1,3-dione]: the “possibility of causing cardiotoxicity (hERG ligand binding)” value on hERG channel is “low possibility of causing cardiotoxicity”. The “weight loss or abnormal behavior” value in data set [1] is recorded as “no weight loss or abnormal behavior”. The IC50 with SNU449 worked out at 155 nM; in the data set on Huh7, 693 nM; with PANC-1, 674 nM; in the data set on HCT116, 187 nM; with AGS it was 254 nM; with A375 it was 227 nM. In the data set with MDA-MB-231, the IC50 worked out at 636 nM. The compound further yielded a Kd at CRBN proteins of 16 nM.
